In patent US10392391B2 (Vertex Pharmaceuticals Incorporated, priority 2012, dated 2019):

Target: ATR kinase (full-length ATR) (Homo sapiens (Human), UniProt Q13535)
Assay: ATR inhibition assay (radioactive-phosphate incorporation)
Type: biochemical
Settings: not given
How it was run: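 Ki(app) was fitted by non-linear regression to background-corrected initial rates. Full-length ATR (5 nM) phosphorylated 800 μM peptide using 10 μM [γ-33P]ATP at 25° C in Tris/HCl pH 7.5 buffer with MgCl2, DTT and 7% DMSO. After 10-minute compound pre-incubation and 24-hour reaction, phosphocellulose filters were scintillation counted.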

Chain of ATR kinase (full-length ATR) (Q13535 whole entry): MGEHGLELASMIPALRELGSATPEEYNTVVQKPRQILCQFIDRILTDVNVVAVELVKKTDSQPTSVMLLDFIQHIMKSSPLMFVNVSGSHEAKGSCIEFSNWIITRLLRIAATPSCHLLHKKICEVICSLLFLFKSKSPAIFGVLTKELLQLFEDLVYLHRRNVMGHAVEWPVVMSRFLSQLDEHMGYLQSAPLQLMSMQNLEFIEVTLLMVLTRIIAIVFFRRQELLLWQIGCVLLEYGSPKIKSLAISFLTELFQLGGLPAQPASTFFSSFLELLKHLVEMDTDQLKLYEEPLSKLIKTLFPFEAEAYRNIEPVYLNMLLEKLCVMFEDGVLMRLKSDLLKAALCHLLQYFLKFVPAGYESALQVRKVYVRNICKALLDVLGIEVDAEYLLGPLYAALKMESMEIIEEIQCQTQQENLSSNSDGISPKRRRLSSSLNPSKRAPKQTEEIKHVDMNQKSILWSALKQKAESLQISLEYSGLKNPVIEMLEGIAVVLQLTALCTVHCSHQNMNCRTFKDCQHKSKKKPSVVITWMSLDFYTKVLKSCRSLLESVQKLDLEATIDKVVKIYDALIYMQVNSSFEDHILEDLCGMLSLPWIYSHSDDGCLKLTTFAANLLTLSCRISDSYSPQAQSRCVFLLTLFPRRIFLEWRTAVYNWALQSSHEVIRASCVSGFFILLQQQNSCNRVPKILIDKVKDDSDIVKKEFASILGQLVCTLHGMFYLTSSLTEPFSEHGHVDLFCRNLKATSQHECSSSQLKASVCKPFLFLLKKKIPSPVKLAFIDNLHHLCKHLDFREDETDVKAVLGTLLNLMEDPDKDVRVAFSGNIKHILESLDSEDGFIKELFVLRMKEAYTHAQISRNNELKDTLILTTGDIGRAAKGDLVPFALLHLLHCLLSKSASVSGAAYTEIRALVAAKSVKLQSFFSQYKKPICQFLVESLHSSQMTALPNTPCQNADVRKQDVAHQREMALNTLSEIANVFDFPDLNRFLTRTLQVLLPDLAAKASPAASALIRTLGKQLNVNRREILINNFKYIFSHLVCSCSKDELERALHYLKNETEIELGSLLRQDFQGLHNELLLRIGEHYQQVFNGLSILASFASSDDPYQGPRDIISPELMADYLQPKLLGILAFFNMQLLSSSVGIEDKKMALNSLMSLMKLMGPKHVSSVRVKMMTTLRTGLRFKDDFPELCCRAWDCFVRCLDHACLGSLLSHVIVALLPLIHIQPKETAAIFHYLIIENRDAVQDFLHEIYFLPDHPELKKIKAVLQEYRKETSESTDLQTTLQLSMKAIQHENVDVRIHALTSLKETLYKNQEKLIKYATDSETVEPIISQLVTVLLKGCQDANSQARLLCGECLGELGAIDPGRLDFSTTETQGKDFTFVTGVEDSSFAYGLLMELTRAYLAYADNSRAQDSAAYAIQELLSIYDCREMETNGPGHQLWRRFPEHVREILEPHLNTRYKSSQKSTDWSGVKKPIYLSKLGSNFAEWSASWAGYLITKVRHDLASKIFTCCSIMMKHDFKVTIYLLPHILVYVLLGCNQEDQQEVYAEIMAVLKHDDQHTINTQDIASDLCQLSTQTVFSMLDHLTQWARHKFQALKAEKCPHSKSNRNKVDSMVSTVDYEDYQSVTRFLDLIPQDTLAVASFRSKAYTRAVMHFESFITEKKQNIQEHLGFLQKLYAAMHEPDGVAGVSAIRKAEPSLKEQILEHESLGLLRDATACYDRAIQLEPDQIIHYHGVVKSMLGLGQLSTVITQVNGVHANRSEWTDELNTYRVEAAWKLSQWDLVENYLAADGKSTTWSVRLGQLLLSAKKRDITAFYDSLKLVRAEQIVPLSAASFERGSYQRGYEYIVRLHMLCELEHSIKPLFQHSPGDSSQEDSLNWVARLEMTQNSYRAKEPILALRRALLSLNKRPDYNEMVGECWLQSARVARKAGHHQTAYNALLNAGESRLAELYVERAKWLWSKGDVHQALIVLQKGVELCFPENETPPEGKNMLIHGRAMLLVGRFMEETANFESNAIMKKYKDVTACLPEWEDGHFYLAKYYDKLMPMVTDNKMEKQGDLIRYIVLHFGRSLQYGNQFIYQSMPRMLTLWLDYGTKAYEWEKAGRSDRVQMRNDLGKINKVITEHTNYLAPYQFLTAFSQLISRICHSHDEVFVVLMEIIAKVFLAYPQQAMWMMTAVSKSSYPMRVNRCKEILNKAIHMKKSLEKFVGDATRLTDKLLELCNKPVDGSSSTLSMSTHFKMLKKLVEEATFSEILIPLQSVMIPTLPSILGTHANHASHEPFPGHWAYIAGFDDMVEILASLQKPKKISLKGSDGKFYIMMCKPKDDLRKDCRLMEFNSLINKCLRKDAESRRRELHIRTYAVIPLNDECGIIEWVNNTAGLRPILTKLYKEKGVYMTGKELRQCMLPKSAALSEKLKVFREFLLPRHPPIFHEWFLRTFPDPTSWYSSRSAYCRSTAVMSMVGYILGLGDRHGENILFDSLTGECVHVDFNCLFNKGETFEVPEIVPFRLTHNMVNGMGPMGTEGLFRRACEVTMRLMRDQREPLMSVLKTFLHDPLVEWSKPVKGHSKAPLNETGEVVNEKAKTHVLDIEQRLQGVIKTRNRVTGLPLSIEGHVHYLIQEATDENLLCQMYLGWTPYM

Row | Ki [nM] | Compound
1 | 1000 to 5000 | Cn1ccc2cncc(NC(=O)c3c(N)nn4cc(F)cnc34)c21 [I-N-259, 2-amino-6-fluoro-N-(1-methyl-1H-pyrrolo[3,2-c]pyridin-7-yl)pyrazolo[1,5-a]pyrimidine-3-carboxamide]
2 | 1000 to 5000 | Nc1nn2cc(F)cnc2c1C(=O)Nc1cnccc1N1CCCCCC1 [I-N-264, 2-amino-N-(4-(azepan-1-yl)pyridin-3-yl)-6-fluoropyrazolo[1,5-a]pyrimidine-3-carboxamide]

Same assay, conditions: Ki(app), 5 nM full-length ATR, 10 μM ATP, 25° C.

Row | Compound | Ki [nM]
3 | Cc1ncn(-c2ccncc2NC(=O)c2c(N)nn3cc(F)cnc23)c1C [I-N-269, 2-amino-N-(4-(4,5-dimethyl-1H-imidazol-1-yl)pyridin-3-yl)-6-fluoropyrazolo[1,5-a]pyrimidine-3-carboxamide] | 10 to 1000
4 | Nc1nn2cc(F)cnc2c1C(=O)Nc1cncc(F)c1N1CCCCC1 [I-N-270, 2-amino-6-fluoro-N-(5-fluoro-4-(piperidin-1-yl)pyridin-3-yl)pyrazolo[1,5-a]pyrimidine-3-carboxamide] | 10 to 1000
5 | Nc1nn2cc(F)cnc2c1C(=O)Nc1cnccc1N1CCC(S(=O)(=O)N2CCC2)CC1 [I-N-271, 2-amino-N-(4-(4-(azetidin-1-ylsulfonyl)piperidin-1-yl)pyridin-3-yl)-6-fluoropyrazolo[1,5-a]pyrimidine-3-carboxamide] | 10 to 1000
6 | CN1CCOC2(CCN(c3c(F)cncc3NC(=O)c3c(N)nn4cc(F)cnc34)CC2)C1 [I-N-272, 2-amino-6-fluoro-N-(5-fluoro-4-(4-methyl-1-oxa-4,9-diazaspiro[5.5]undecan-9-yl)pyridin-3-yl)pyrazolo[1,5-a]pyrimidine-3-carboxamide] | 10 to 1000
7 | Nc1nn2cc(F)cnc2c1C(=O)Nc1cncc(F)c1N1CCC(S(=O)(=O)N2CCN3CCC2CC3)CC1 [I-N-273, N-(4-(4-(1,4-diazabicyclo[3.2.2]nonan-4-ylsulfonyl)piperidin-1-yl)-5-fluoropyridin-3-yl)-2-amino-6-fluoropyrazolo[1,5-a]pyrimidine-3-carboxamide] | 10 to 1000
8 | Nc1nn2cc(F)cnc2c1C(=O)Nc1cncc(F)c1N1CCN(C(=O)C2CCOC2)CC1 (stereo not shown) [I-N-274, 2-amino-6-fluoro-N-(5-fluoro-4-(4-(tetrahydrofuran-3-carbonyl)piperazin-1-yl)pyridin-3-yl)pyrazolo[1,5-a]pyrimidine-3-carboxamide] | 10 to 1000
9 | Nc1nn2cc(F)cnc2c1C(=O)Nc1cncc(F)c1N1CCN(C(=O)C2CC2)CC1 [I-N-276, 2-amino-N-(4-(4-(cyclopropanecarbonyl)piperazin-1-yl)-5-fluoropyridin-3-yl)-6-fluoropyrazolo[1,5-a]pyrimidine-3-carboxamide] | 10 to 1000
10 | Nc1nn2cc(F)cnc2c1C(=O)Nc1cncc(F)c1N1CCN2C(=O)CCCC2C1 (stereo not shown) [I-N-277, 2-amino-6-fluoro-N-(5-fluoro-4-(6-oxohexahydro-1H-pyrido[1,2-a]pyrazin-2(6H)-yl)pyridin-3-yl)pyrazolo[1,5-a]pyrimidine-3-carboxamide] | 10 to 1000
11 | Nc1nn2cc(F)cnc2c1C(=O)Nc1cncc(F)c1N1CCN(C(=O)C2COC2)CC1 [I-N-278, 2-amino-6-fluoro-N-(5-fluoro-4-(4-(oxetane-3-carbonyl)piperazin-1-yl)pyridin-3-yl)pyrazolo[1,5-a]pyrimidine-3-carboxamide] | 10 to 1000
12 | Nc1nn2cc(F)cnc2c1C(=O)Nc1cncc(F)c1N1CCN2C(=O)CCC[C@H]2C1 [I-N-279, (S)-2-amino-6-fluoro-N-(5-fluoro-4-(6-oxohexahydro-1H-pyrido[1,2-a]pyrazin-2(6H)-yl)pyridin-3-yl)pyrazolo[1,5-a]pyrimidine-3-carboxamide] | 10 to 1000
13 | Nc1nn2cc(F)cnc2c1C(=O)Nc1cncc(F)c1N1CCN2C(=O)CCC[C@@H]2C1 [I-N-280, (R)-2-amino-6-fluoro-N-(5-fluoro-4-(6-oxohexahydro-1H-pyrido[1,2-a]pyrazin-2(6H)-yl)pyridin-3-yl)pyrazolo[1,5-a]pyrimidine-3-carboxamide] | 10 to 1000
14 | Nc1nn2cc(F)cnc2c1C(=O)Nc1cncc(Cl)c1N1CCCC1 [I-N-281, 2-amino-N-(5-chloro-4-(pyrrolidin-1-yl)pyridin-3-yl)-6-fluoropyrazolo[1,5-a]pyrimidine-3-carboxamide] | 10 to 1000
15 | COCC1CCN(c2ccncc2NC(=O)c2c(N)nn3cc(F)cnc23)CC1 [I-N-282, 2-amino-6-fluoro-N-(4-(4-(methoxymethyl)piperidin-1-yl)pyridin-3-yl)pyrazolo[1,5-a]pyrimidine-3-carboxamide] | 10 to 1000
16 | Cc1cncn1-c1ccncc1NC(=O)c1c(N)nn2cc(F)cnc12 [I-N-283, 2-amino-6-fluoro-N-(4-(5-methyl-1H-imidazol-1-yl)pyridin-3-yl)pyrazolo[1,5-a]pyrimidine-3-carboxamide] | 10 to 1000
17 | Nc1nn2cc(F)cnc2c1C(=O)Nc1cncc(Cl)c1N1CCC(O)C1 (stereo not shown) [I-N-284, 2-amino-N-(5-chloro-4-(3-hydroxypyrrolidin-1-yl)pyridin-3-yl)-6-fluoropyrazolo[1,5-a]pyrimidine-3-carboxamide] | 10 to 1000
18 | N#C[C@@H]1CCN(c2c(Cl)cncc2NC(=O)c2c(N)nn3cc(F)cnc23)C1 [I-N-285, (R)-2-amino-N-(5-chloro-4-(3-cyanopyrrolidin-1-yl)pyridin-3-yl)-6-fluoropyrazolo[1,5-a]pyrimidine-3-carboxamide] | 10 to 1000
19 | CN1CC2CN(c3c(Cl)cncc3NC(=O)c3c(N)nn4cc(F)cnc34)CC2C1 (stereo not shown) [I-N-286, 2-amino-N-(5-chloro-4-(5-methylhexahydropyrrolo[3,4-c]pyrrol-2(1H)-yl)pyridin-3-yl)-6-fluoropyrazolo[1,5-a]pyrimidine-3-carboxamide] | 10 to 1000
20 | CS(=O)(=O)C1CCN(c2c(Cl)cncc2NC(=O)c2c(N)nn3cc(F)cnc23)C1 (stereo not shown) [I-N-287, 2-amino-N-(5-chloro-4-(3-(methylsulfonyl)pyrrolidin-1-yl)pyridin-3-yl)-6-fluoropyrazolo[1,5-a]pyrimidine-3-carboxamide] | 10 to 1000
21 | Nc1nn2cc(F)cnc2c1C(=O)Nc1cncc(F)c1N1CCC(n2ccnc2)CC1 [I-N-288, N-(4-(4-(1H-imidazol-1-yl)piperidin-1-yl)-5-fluoropyridin-3-yl)-2-amino-6-fluoropyrazolo[1,5-a]pyrimidine-3-carboxamide] | 10 to 1000

More lines, now with the values ahead:

Row | Ki [nM] | Compound
22 | 10 to 1000 | CC1(C)CN(c2ccncc2NC(=O)c2c(N)nn3cc(F)cnc23)CCS1(=O)=O [I-N-252, 2-amino-N-(4-(2,2-dimethyl-1,1-dioxidothiomorpholino)pyridin-3-yl)-6-fluoropyrazolo[1,5-a]pyrimidine-3-carboxamide]
23 | 10 to 1000 | Nc1nn2cc(F)cnc2c1C(=O)Nc1cnccc1N1CCCC2(COC2)C1 [I-N-253, N-(4-(2-oxa-6-azaspiro[3.5]nonan-6-yl)pyridin-3-yl)-2-amino-6-fluoropyrazolo[1,5-a]pyrimidine-3-carboxamide]
24 | 10 to 1000 | Nc1nn2cc(F)cnc2c1C(=O)Nc1cnccc1N1CCC2(CCNC2)CC1 [I-N-255, N-(4-(2,8-diazaspiro[4.5]decan-8-yl)pyridin-3-yl)-2-amino-6-fluoropyrazolo[1,5-a]pyrimidine-3-carboxamide]
25 | 10 to 1000 | Cc1nnc(N2CCN(c3ccncc3NC(=O)c3c(N)nn4cc(F)cnc34)CC2)o1 [I-N-256, 2-amino-6-fluoro-N-(4-(4-(5-methyl-1,3,4-oxadiazol-2-yl)piperazin-1-yl)pyridin-3-yl)pyrazolo[1,5-a]pyrimidine-3-carboxamide]
26 | 10 to 1000 | CC(=O)N1CCC2(CCN(c3ccncc3NC(=O)c3c(N)nn4cc(F)cnc34)CC2)C1 [I-N-257, N-(4-(2-acetyl-2,8-diazaspiro[4.5]decan-8-yl)pyridin-3-yl)-2-amino-6-fluoropyrazolo[1,5-a]pyrimidine-3-carboxamide]
27 | 10 to 1000 | Nc1nn2cc(F)cnc2c1C(=O)Nc1cnccc1N1CCN2C(=O)CC[C@@H]2C1 [I-N-258, (R)-2-amino-6-fluoro-N-(4-(6-oxohexahydropyrrolo[1,2-a]pyrazin-2(1H)-yl)pyridin-3-yl)pyrazolo[1,5-a]pyrimidine-3-carboxamide]
28 | 10 to 1000 | Cc1nonc1N1CCN(c2ccncc2NC(=O)c2c(N)nn3cc(F)cnc23)CC1 [I-N-260, 2-amino-6-fluoro-N-(4-(4-(4-methyl-1,2,5-oxadiazol-3-yl)piperazin-1-yl)pyridin-3-yl)pyrazolo[1,5-a]pyrimidine-3-carboxamide]
29 | 10 to 1000 | COC(=O)N1CCN(c2c(F)cncc2NC(=O)c2c(N)nn3cc(F)cnc23)CC1 [I-N-261, methyl-4-(3-(2-amino-6-fluoropyrazolo[1,5-a]pyrimidine-3-carboxamido)-5-fluoropyridin-4-yl)piperazine-1-carboxylate]
30 | 10 to 1000 | CC(=O)N1CCCC12CCN(c1ccncc1NC(=O)c1c(N)nn3cc(F)cnc13)CC2 [I-N-262, N-(4-(1-acetyl-1,8-diazaspiro[4.5]decan-8-yl)pyridin-3-yl)-2-amino-6-fluoropyrazolo[1,5-a]pyrimidine-3-carboxamide]
31 | 10 to 1000 | Cc1nncn1-c1ccncc1NC(=O)c1c(N)nn2cc(F)cnc12 [I-N-263, 2-amino-6-fluoro-N-(4-(3-methyl-4H-1,2,4-triazol-4-yl)pyridin-3-yl)pyrazolo[1,5-a]pyrimidine-3-carboxamide]
32 | 10 to 1000 | Cc1nnc(C2CCN(c3ccncc3NC(=O)c3c(N)nn4cc(F)cnc34)CC2)o1 [I-N-265, 2-amino-6-fluoro-N-(4-(4-(5-methyl-1,3,4-oxadiazol-2-yl)piperidin-1-yl)pyridin-3-yl)pyrazolo[1,5-a]pyrimidine-3-carboxamide]
33 | 10 to 1000 | CN(C)CC1CCN(c2ccncc2NC(=O)c2c(N)nn3cc(F)cnc23)CC1 [I-N-267, 2-amino-N-(4-(4-((dimethylamino)methyl)piperidin-1-yl)pyridin-3-yl)-6-fluoropyrazolo[1,5-a]pyrimidine-3-carboxamide]
34 | 10 to 1000 | Nc1nn2cc(F)cnc2c1C(=O)Nc1cnccc1N1CCC(c2nnco2)CC1 [I-N-268, N-(4-(4-(1,3,4-oxadiazol-2-yl)piperidin-1-yl)pyridin-3-yl)-2-amino-6-fluoropyrazolo[1,5-a]pyrimidine-3-carboxamide]
